The text below walks through data of paper PMC6273079, “Purification of Flavonoids from Chinese Bayberry (Morella rubra Sieb. et Zucc.) Fruit Extracts and α-Glucosidase Inhibitory Activities of Different Fractionations” (Molecules, 2016).

Experiment [1] is described as follows: ABTS radical scavenging activity. The settings on record: samples from BQ pulp; 6 min, 734 nm; mean ± SD, n = 3. As to the method: ABTS assay was carried out using a spectrophotometer as reported. The ABTS radical cation was generated by reacting 7 mmol/L ABTS with 2.45 mmol/L potassium persulfate, and the mixture was allowed to stand in the dark at room temperature for 16 h before use. Before analysis, the ABTS solution was diluted with ethanol to an absorbance of 0.70 ± 0.05 at a wavelength of 734 nm. The absorbance at 734 nm was recorded for 6 min after mixing of 0.1 mL of the tested samples dissolved in ethanol with 3.9 mL of ABTS solution. The radical scavenging activity was calculated as the Equation (1) above.

Experiment [2] in a line: DPPH radical scavenging activity. The settings on record: samples from BQ pulp; 1 h reaction, 515 nm; mean ± SD, n = 3. As to the method: DPPH radical scavenging activity was measured according to Brand-Williams, Cuvelier, and Berset with modifications. The reaction for scavenging DPPH radical was carried out by adding 2 μL sample to 198 μL 25 μg/mL DPPH solution at room temperature. Absorbance at 515 nm before (A0) and after (A1) the reaction (1 h) was recorded using a micro-plate reader (BioTech, Synergy H1, Winooski, VT, USA). The radical scavenging activity was calculated as: Scavenging rate (%) = (A0 − A1)/A0 × 100 (1)
Background: Loss of DPPH colour is used to gauge radical scavenging.

On to `OC[C@H]1O[C@@H](Oc2cc3c(O)cc(O)cc3[o+]c2-c2ccc(O)c(O)c2)[C@H](O)[C@@H](O)[C@@H]1O` [C3G, cyanidin-3-O-glucoside], for which the “IC50 of ABTS radical scavenging activity” value in experiment [1] was 4.19 ± 0.16 mg/L. The “IC50 of DPPH scavenging activity” value in experiment [2] came to 3.22 mg/L.
For `C[C@@H]1O[C@@H](Oc2c(-c3cc(O)c(O)c(O)c3)oc3cc(O)cc(O)c3c2=O)[C@H](O)[C@H](O)[C@H]1O` [M3R, myricetin-3-O-rhamnoside] the same measures were 3.24 ± 0.02 mg/L and 2.81 mg/L.
On the same counts, the results for `O=c1c(O[C@@H]2O[C@H](CO)[C@H](O)[C@H](O)[C@H]2O)c(-c2ccc(O)c(O)c2)oc2cc(O)cc(O)c12` [Q3Gal, quercetin-3-O-galactoside] are 2.09 ± 0.01 mg/L and 2.43 mg/L.
Consider quercetin-3-O-rhamnoside [Q3R], for which the “IC50 of ABTS radical scavenging activity” value in experiment [1] is 2.28 ± 0.05 mg/L. Besides, the “IC50 of DPPH scavenging activity” value in experiment [2] turned out to be 2.55 mg/L.
